Consider five compounds from EP0933350A1, “Tricyclic retinoids, methods for their production and use” (LIGAND PHARMACEUTICALS INCORPORATED, priority 1994, dated 1996).

For orientation: Kd means the constant that tells how readily two partners part at equilibrium. A low value points to tighter binding. For orientation: IC80 means the point of the concentration-response curve where the effect stands at 80%. Lower therefore signals an effect from little substance. Usually IC50 stands for the concentration needed to halve the response being measured.

The target of one assay is T1, RARα (Homo sapiens, UniProt P10276).
T1 sequence (P10276 1-462): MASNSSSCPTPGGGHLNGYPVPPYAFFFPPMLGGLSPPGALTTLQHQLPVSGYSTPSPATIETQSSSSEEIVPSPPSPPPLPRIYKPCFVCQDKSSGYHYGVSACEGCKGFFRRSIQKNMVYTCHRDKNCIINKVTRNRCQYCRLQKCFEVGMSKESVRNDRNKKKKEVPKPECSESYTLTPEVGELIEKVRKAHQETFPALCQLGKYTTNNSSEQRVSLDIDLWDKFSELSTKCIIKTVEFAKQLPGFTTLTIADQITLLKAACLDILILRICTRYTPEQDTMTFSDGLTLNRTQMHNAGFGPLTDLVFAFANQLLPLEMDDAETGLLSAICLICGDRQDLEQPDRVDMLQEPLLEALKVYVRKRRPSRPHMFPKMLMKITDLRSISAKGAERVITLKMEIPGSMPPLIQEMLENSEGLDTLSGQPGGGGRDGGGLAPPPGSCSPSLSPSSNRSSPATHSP
Kind of assay: co-transfection assay (RAR/RXR agonist activity, luciferase reporter in CV-1 cells). The format is cell-based. The conditions noted are these: read-out: RARα Pot. (In general: In a reporter assay the amount or activity of a reporter protein is the signal.)

In another assay the target is T2, RXRα (Homo sapiens, UniProt P19793).
T2 sequence (P19793 1-462): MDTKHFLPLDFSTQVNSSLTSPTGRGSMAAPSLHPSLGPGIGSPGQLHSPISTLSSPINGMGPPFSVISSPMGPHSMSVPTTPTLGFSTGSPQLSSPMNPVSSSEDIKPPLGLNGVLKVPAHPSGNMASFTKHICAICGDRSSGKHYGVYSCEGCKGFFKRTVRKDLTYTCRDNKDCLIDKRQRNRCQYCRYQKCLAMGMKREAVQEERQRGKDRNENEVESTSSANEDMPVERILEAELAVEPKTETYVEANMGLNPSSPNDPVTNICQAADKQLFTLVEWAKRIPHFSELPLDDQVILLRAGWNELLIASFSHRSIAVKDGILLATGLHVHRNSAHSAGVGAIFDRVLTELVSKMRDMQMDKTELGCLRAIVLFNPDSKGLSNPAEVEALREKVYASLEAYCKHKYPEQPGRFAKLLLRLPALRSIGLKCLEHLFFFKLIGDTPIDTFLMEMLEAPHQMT
Described as above. The format is cell-based. The settings on record: read-out: RXRα Pot.

For assay [1], the target named is T3, RXRγ (Mus musculus, UniProt P28705).
T3 sequence (P28705 1-463): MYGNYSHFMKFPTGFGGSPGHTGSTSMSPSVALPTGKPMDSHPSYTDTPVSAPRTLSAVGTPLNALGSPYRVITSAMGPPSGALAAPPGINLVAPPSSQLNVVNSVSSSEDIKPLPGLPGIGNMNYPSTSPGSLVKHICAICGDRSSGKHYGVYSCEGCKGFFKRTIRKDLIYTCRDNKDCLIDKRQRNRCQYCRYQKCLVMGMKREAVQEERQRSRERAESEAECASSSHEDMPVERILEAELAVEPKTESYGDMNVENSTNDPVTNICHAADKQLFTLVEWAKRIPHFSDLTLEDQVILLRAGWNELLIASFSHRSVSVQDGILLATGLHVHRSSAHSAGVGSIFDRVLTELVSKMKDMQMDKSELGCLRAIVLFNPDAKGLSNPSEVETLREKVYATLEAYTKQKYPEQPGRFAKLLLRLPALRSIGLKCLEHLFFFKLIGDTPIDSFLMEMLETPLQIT
Described as above. The class given is cell-based. The conditions noted are these: read-out: RXRγ Pot.

The target of a further assay is T4, RARγ (Homo sapiens, UniProt P13631).
T4 sequence (P13631 1-454): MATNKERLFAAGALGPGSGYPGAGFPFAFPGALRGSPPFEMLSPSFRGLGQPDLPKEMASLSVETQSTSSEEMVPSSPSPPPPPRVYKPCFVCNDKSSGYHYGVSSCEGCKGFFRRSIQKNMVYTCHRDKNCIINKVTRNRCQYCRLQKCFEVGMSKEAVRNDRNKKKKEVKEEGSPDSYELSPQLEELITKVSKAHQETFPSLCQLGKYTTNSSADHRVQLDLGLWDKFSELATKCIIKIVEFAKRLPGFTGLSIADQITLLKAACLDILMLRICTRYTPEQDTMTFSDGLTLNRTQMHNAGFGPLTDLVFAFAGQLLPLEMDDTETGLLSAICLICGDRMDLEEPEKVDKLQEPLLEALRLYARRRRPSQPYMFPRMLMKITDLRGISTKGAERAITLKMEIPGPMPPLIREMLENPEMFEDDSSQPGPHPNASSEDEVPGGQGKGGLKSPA
Kind of assay: competitive binding of tritiated retinoids to retinoid receptors. The settings on record: competition with tritiated retinoid, Cheng-Prussof equation.

The next assay concerns the target T5, RXRβ (Mus musculus, UniProt P28704).
T5 sequence (P28704 1-520): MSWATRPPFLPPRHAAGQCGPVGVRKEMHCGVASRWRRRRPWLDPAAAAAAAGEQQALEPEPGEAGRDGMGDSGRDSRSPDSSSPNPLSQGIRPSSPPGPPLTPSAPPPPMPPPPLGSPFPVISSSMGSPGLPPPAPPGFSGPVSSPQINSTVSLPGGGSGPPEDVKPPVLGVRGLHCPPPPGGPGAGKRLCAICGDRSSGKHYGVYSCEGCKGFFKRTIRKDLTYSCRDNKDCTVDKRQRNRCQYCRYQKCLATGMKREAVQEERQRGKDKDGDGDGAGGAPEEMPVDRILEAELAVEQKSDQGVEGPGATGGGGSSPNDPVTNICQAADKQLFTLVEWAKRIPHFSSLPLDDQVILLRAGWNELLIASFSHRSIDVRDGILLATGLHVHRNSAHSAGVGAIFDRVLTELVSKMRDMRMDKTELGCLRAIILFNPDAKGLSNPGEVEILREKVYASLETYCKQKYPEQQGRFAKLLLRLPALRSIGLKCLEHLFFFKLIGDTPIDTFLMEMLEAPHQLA
Described as above. The settings on record: competition with tritiated retinoid, Cheng-Prussof equation.

Assay [2] addresses T3, RXRγ. The assay is described as above. The settings on record: competition with tritiated retinoid, Cheng-Prussof equation.
The test system of the next assay is TPA induction of ODC. Description: ornithine decarboxylase (ODC) assay: inhibition of TPA induction of ODC. The format is cell-based. The conditions noted are these: concentration required to inhibit the TPA induction of ODC by 80 percent.
The subject of assay [3] is RPMI 8226 cell line. Description: incorporation of 3H-thymidine (antiproliferative). The settings on record: Homo sapiens, 96 hours, radiolabeled thymidine incorporation, read-out: TdR IC50. The class given is cell-based.
Assay [4] has as its system RPMI 8226 cell line. Kind of assay: viability (tetrazolium dye, mitochondrial function). The format is cell-based. The conditions noted are these: Homo sapiens, 96 hours, read-out: MTS IC50.
The test system of assay [5] is ME 180 cell line. Kind of assay: incorporation of 3H-thymidine (antiproliferative). The class given is cell-based. The settings on record: Homo sapiens, 96 hours, radiolabeled thymidine incorporation, read-out: TdR IC50. In general terms: Dividing cells build labelled thymidine or BrdU into new DNA.
For assay [6], the system named is ME 180 cell line. Description: viability (tetrazolium dye, mitochondrial function). The class given is cell-based. The conditions noted are these: Homo sapiens, 96 hours, read-out: MTS IC50.
The subject of the next assay is AML-193 cell line. The assay is described as above. The format is cell-based. The settings on record: Homo sapiens, 96 hours, read-out: MTS IC50.

Turning to `CC(/C=C/C=C1/CCCc2cc3c(cc21)C(C)(C)CCC3(C)C)=C\C(=O)O` [Compound 101b, (2E,4E)-3-Methyl-6-[(Z)-3,4,5,6,7,8-hexahydro-5,5,8,8-tetramethyl-2H-anthracen-1-ylidene]hexa-2,4-dienoic acid], the EC50 at RARα came out at 32 nM; on RXRα, 35 nM; on RXRγ [1], 41 nM. Also, the figures for the Kd at RARγ, on RXRβ and at RXRγ [2] were 541 nM, 30 nM and 48 nM, respectively. Further, in the assay with TPA induction of ODC, the IC80 turned out to be 0.78 nM. In addition, the IC50 with RPMI 8226 cell line [3] was 6 nM; in the assay on RPMI 8226 cell line [4], 100 nM; in the assay on ME 180 cell line [5], 8 nM; in the assay on ME 180 cell line [6], 75 nM; with AML-193 cell line, 1000 nM.

In the case of `CC(/C=C/C=C1\CCCc2cc3c(cc21)C(C)(C)CCC3(C)C)=C\C(=O)O` [Compound 109b, (2E,4E)-3-Methyl-6-[(E)-3,4,5,6,7,8-hexahydro-5,5,8,8-tetramethyl-2H-anthracen-1-ylidene]hexa-2,4-dienoic acid], the EC50 came out at 28 nM at RARα, 2020 nM at RXRα and 2270 nM on RXRγ [1]. For the same compound, the Kd on RARγ turned out to be 279 nM; on RXRβ, 332 nM; on RXRγ [2], 382 nM. This compound showed an IC80 in the assay on TPA induction of ODC of 0.08 nM. The IC50 in the assay on RPMI 8226 cell line [3] is 0.05 nM; in the assay on RPMI 8226 cell line [4], 10 nM; in the assay on ME 180 cell line [5], 5 nM; in the assay on ME 180 cell line [6], 100 nM; with AML-193 cell line it was 1000 nM.

Consider `CC(/C=C/C=C1\CCOc2cc3c(cc21)C(C)(C)CCC3(C)C)=C\C(=O)O` [Compound 119b, (2E,4E)-3-Methyl-6-[(E)-2,3,6,7,8,9-hexahydro-6,6,9,9-tetramethylbenzo[g]chromen-4-ylidene]hexa-2,4-dienoic acid], for which the EC50 on RARα came out at 20 nM; at RXRα, 1660 nM; at RXRγ [1], 742 nM. Further, the Kd amounted to 87 nM at RARγ, 372 nM at RXRβ and 398 nM at RXRγ [2]. Moreover, the half-inhibitory concentration (IC50) in the assay with RPMI 8226 cell line [3] came to 0.5 nM; in the assay with RPMI 8226 cell line [4], 2.6 nM; in the assay with ME 180 cell line [5], 0.6 nM; in the assay with ME 180 cell line [6], 2 nM; in the assay with AML-193 cell line, 1000 nM.

Turning to `CC(/C=C/CN1CCCCc2cc3c(cc21)C(C)(C)CCC3(C)C)=C\C(=O)O` [Compound 138b, (2E,4E)-3-Methyl-6-[7,7,10,10-tetramethyl-2,3,4,5,7,8,9,10-octahydronaphtho[2,3-6]azepinyl)hexa-2,4-dienoic acid], the results for the EC50 on RARα, on RXRα and at RXRγ [1] were > 10000 nM, 422 nM and 301 nM, respectively. Further, the Kd at RARγ is > 1000 nM; on RXRβ, 276 nM; on RXRγ [2], 508 nM.

With `CC(/C=C/C=C1/CCOc2cc3c(cc21)C(C)(C)CCC3(C)C)=C\C(=O)O` [Compound 144b], the figures for the EC50 at RARα, at RXRα and on RXRγ [1] were 14 nM, 36 nM and 40 nM, respectively. The Kd on RARγ was found to be 494 nM; on RXRβ, 146 nM; at RXRγ [2], 85 nM. The compound further showed an IC80 in the assay on TPA induction of ODC of 0.6 nM. The IC50 was 0.6 nM with RPMI 8226 cell line [3]; 7.5 nM with RPMI 8226 cell line [4]; 4 nM in the assay on ME 180 cell line [5]; 10 nM in the assay with ME 180 cell line [6]; 1000 nM in the assay with AML-193 cell line.
